Test results taken from the NIST ThermoML archive (doi:10.1016/j.jct.2012.08.014).
Numbers after ± are expanded uncertainties.

Conditions: Liquid, Vibrating tube method

## CC(O)CO (stereo not drawn) [1,2-propanediol]
318.15 K, 30000 kPa
  mass density: 1032.7 ± 2.4 kg/m3
318.15 K, 35000 kPa
  mass density: 1035 ± 2.4 kg/m3
318.15 K, 40000 kPa
  mass density: 1037.2 ± 2.4 kg/m3
318.15 K, 45000 kPa
  mass density: 1039.4 ± 2.4 kg/m3
318.15 K, 50000 kPa
  mass density: 1041.5 ± 2.4 kg/m3
318.15 K, 55000 kPa
  mass density: 1043.6 ± 2.4 kg/m3
318.15 K, 60000 kPa
  mass density: 1045.7 ± 2.4 kg/m3
328.15 K, 100 kPa
  mass density: 1010 ± 2.4 kg/m3
328.15 K, 1000 kPa
  mass density: 1010.3 ± 2.4 kg/m3
328.15 K, 5000 kPa
  mass density: 1012.7 ± 2.4 kg/m3
328.15 K, 10000 kPa
  mass density: 1015.4 ± 2.4 kg/m3
328.15 K, 15000 kPa
  mass density: 1018 ± 2.4 kg/m3
328.15 K, 20000 kPa
  mass density: 1020.6 ± 2.4 kg/m3
328.15 K, 25000 kPa
  mass density: 1023.1 ± 2.4 kg/m3
328.15 K, 30000 kPa
  mass density: 1025.6 ± 2.4 kg/m3
328.15 K, 35000 kPa
  mass density: 1027.9 ± 2.4 kg/m3
328.15 K, 40000 kPa
  mass density: 1030.3 ± 2.4 kg/m3
328.15 K, 45000 kPa
  mass density: 1032.5 ± 2.4 kg/m3
328.15 K, 50000 kPa
  mass density: 1034.7 ± 2.4 kg/m3
328.15 K, 55000 kPa
  mass density: 1036.9 ± 2.4 kg/m3
328.15 K, 60000 kPa
  mass density: 1039 ± 2.4 kg/m3
338.15 K, 100 kPa
  mass density: 1002.2 ± 2.4 kg/m3
338.15 K, 1000 kPa
  mass density: 1002.4 ± 2.4 kg/m3
338.15 K, 5000 kPa
  mass density: 1004.8 ± 2.4 kg/m3
338.15 K, 10000 kPa
  mass density: 1007.6 ± 2.4 kg/m3
338.15 K, 15000 kPa
  mass density: 1010.4 ± 2.4 kg/m3
338.15 K, 20000 kPa
  mass density: 1013 ± 2.4 kg/m3
338.15 K, 25000 kPa
  mass density: 1015.6 ± 2.4 kg/m3
338.15 K, 30000 kPa
  mass density: 1018.2 ± 2.4 kg/m3
338.15 K, 35000 kPa
  mass density: 1020.7 ± 2.4 kg/m3
338.15 K, 40000 kPa
  mass density: 1023.2 ± 2.4 kg/m3
338.15 K, 45000 kPa
  mass density: 1025.5 ± 2.4 kg/m3
338.15 K, 50000 kPa
  mass density: 1027.9 ± 2.4 kg/m3
338.15 K, 55000 kPa
  mass density: 1030.2 ± 2.4 kg/m3
338.15 K, 60000 kPa
  mass density: 1032.4 ± 2.4 kg/m3
348.15 K, 100 kPa
  mass density: 994.1 ± 2.4 kg/m3
348.15 K, 1000 kPa
  mass density: 994.5 ± 2.4 kg/m3
348.15 K, 5000 kPa
  mass density: 996.9 ± 2.4 kg/m3
348.15 K, 10000 kPa
  mass density: 999.9 ± 2.4 kg/m3
348.15 K, 15000 kPa
  mass density: 1002.8 ± 2.4 kg/m3
348.15 K, 20000 kPa
  mass density: 1005.5 ± 2.4 kg/m3
348.15 K, 25000 kPa
  mass density: 1008.2 ± 2.4 kg/m3
348.15 K, 30000 kPa
  mass density: 1010.9 ± 2.4 kg/m3
348.15 K, 35000 kPa
  mass density: 1013.4 ± 2.4 kg/m3
348.15 K, 40000 kPa
  mass density: 1016 ± 2.4 kg/m3
348.15 K, 45000 kPa
  mass density: 1018.4 ± 2.4 kg/m3
348.15 K, 50000 kPa
  mass density: 1020.9 ± 2.4 kg/m3
348.15 K, 55000 kPa
  mass density: 1023.2 ± 2.4 kg/m3
348.15 K, 60000 kPa
  mass density: 1025.6 ± 2.4 kg/m3
358.15 K, 100 kPa
  mass density: 985.8 ± 2.4 kg/m3
358.15 K, 1000 kPa
  mass density: 986.2 ± 2.4 kg/m3
358.15 K, 5000 kPa
  mass density: 988.8 ± 2.4 kg/m3
358.15 K, 10000 kPa
  mass density: 991.9 ± 2.4 kg/m3
358.15 K, 15000 kPa
  mass density: 995 ± 2.4 kg/m3
358.15 K, 20000 kPa
  mass density: 997.8 ± 2.4 kg/m3
358.15 K, 25000 kPa
  mass density: 1000.6 ± 2.4 kg/m3
358.15 K, 30000 kPa
  mass density: 1003.4 ± 2.4 kg/m3
358.15 K, 35000 kPa
  mass density: 1006 ± 2.4 kg/m3
358.15 K, 40000 kPa
  mass density: 1008.5 ± 2.4 kg/m3
358.15 K, 45000 kPa
  mass density: 1011.2 ± 2.4 kg/m3
358.15 K, 50000 kPa
  mass density: 1013.6 ± 2.4 kg/m3
358.15 K, 55000 kPa
  mass density: 1016.1 ± 2.4 kg/m3
358.15 K, 60000 kPa
  mass density: 1018.5 ± 2.4 kg/m3
